Our source for the IC50 and viability, T/C values is PubChem BioAssay AID2060359 (Molecular Pharmacology Branch, DTP, NCI, 2025).

For this experiment, the system named is 276233-004-R-J1-PDC spheroids with HUVEC/MSC, viability. In words: Anticancer human tumor 276233-004-R-J1-PDC patient-derived colon adenocarcinoma cell line growth inhibition [TAK]. The settings on record: for viability, T/C: stronger effect = lower value. The text has this: Combinatorial screen of targeted agents with TAK-243 and ipatasertib in multi-cell type tumor spheroids
A high-throughput screen of multi-cell type tumor spheroids was designed to identify active combinations of targeted small molecules and TAK-243 or ipatasertib. Complex spheroids include a stromal component modeled by human endothelial cells (HUVEC) and fibroblasts modeled by human mesenchymal stem cells (MSCs). The concentration ranges selected for each drug and investigational agent were based upon clinically achievable concentrations if the clinical Cmax of the agent was known.
Compounds. The drugs and investigational agents: TAK-243 (785004), ipatasertib (767898), everolimus (733504), selumetinib (741078), bortezomib (756655), trametinib (758246), ixazomib (758254), vemurafenib (761431), dabrafenib (764134), sapanisertib (764658), alpelisib (765974), and copanlisib (816437), were obtained from the National Cancer Institute (NCI) Developmental Therapeutics Program Chemical Repository. The FDA-approved anticancer drug set is available from the NCI Developmental Therapeutics Program. […] The stock solutions were prepared in dimethyl sulfoxide (DMSO, Sigma-Aldrich, St. Louis, MO, cat. D2650) at 800-fold the tested concentration and stored at -70 degrees C prior to their use. All drugs and investigational agents were tested over a range starting from a high concentration at or near the clinical Cmax and decreasing in half-log increments. If the clinical Cmax for an agent had not been determined, the highest concentration tested was 10 microM.
NCI60 Cell Culture. NCI60 cell lines were obtained from the NCI Developmental Therapeutics Program Tumor Repository. For each lot of cells, the Repository performed Applied Biosystems AmpFLSTR Identifiler testing with PCR amplification to confirm consistency with the published Identifier STR profile for each cell line. Cells were kept in continuous culture for no more than 20 passages. The optimal seeding densities for each of the cell lines at each time point assessed were determined prior to performing the concentration response studies. Briefly, the NCI60 human tumor lines were grown as monolayers in RPMI 1640 medium supplemented with 10% FBS and 2 mmol/L L-glutamine.
An additional 2 lines were from the NCI60 cell line panel including melanomas, MALME-3M and SK-MEL-2. Pooled donor human umbilical vein endothelial cells (HUVEC, Lonza, cat. CC-2519) and human mesenchymal stem cells (hMSC, Lonza, cat. PT-2501) were purchased from Lonza (Walkersville, MD).
PDMR cell lines were grown in complete medium (DC medium): Dulbecco's modified Eagle's medium (DMEM)/F12 supplemented with 5% fetal bovine serum (FBS), 2 mM L-glutamine, 100 U/mL penicillin and 100 µg/ml streptomycin, 0.4 µg/ml hydrocortisone, 10 ng/ml epidermal growth factor (EGF) recombinant human protein, 24 µg/mL adenine, and 0.1 mg/mL primocin. During culture from frozen stock vials, PDMR cells were cultured in the same medium containing 10 µM Y-27632 (see Table 3). The PDCs were cultured in complete DMEM/F12 media without 10 microM Y-27632 dihydrochloride for at least two passages prior to the screen. The pooled donor HUVEC and hMSC were cultured in endothelial cell growth medium 2 (PromoCell, Heidelberg, Germany, cat. C-22011) and mesenchymal stem cell growth medium 2 (PromoCell, cat. C-28009), respectively. For all experiments, HUVEC and hMSC were used at passages </=5.
For the pre-screen, cell seeding densities were determined from a titration spanning the range from 5,000 to 313 cells per well. The mct-spheroids including 60% malignant cells, 25% HUVEC and 15% MSC dispensed as a mixture into U-bottom Ultra-Low Attachment 384-well plates (Corning, NY)
High-throughput Drug Combination Screening.
Prior to their inoculation into 384-well plates, malignant cells, HUVEC, and hMSC were removed from T flasks using TrypLE express (Thermo Fisher Scientific, cat. 12605036) and harvested by centrifugation for 5 min at 233 x g. […]

Setting [1] is: curve of first compound, second compound 0.3 µM.
Where [2] appears, read: curve of first compound, second compound 0.949 µM.
Where [3] appears, read: curve of first compound, second compound 3 µM.
[4] abbreviates: curve of first compound, second compound 9.49 µM.
The mark [5] stands for this setting: curve of first compound, second compound 30 µM.

pIC50: −log10 of the molar value. “And” between values parts separate entries of the source, which are not always exact repeats. Equal values may be shown once.
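Also: spheroids exposed to drugs for seven days before the viability read.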

Regarding `Cn1cnc2c(F)c(Nc3ccc(Br)cc3Cl)c(C(=O)NOCCO)cc21` + CC(C)NCC(C(=O)N1CCN(c2ncnc3c2C(C)CC3O)CC1)c1ccc(Cl)cc1, the pIC50 runs as follows: under setting [1], 6.34; under setting [2], 6.44; under setting [3], 6.84; under setting [4], 7.20; under setting [5], 8.02. For the same molecule, the viability, T/C (second compound 0.3 µM, first compound 0.00949 µM) was 79.5%; the viability, T/C (second compound 0.3 µM, first compound 0.03 µM) is 82.8%; the viability, T/C (second compound 0.3 µM, first compound 0.0949 µM) was 65.4%; the viability, T/C (second compound 0.3 µM, first compound 0.3 µM) is 52%; the viability, T/C (second compound 0.3 µM, first compound 0.949 µM) is 49.8%; the viability, T/C (second compound 0.3 µM, first compound 3 µM) was 38.5%. The viability, T/C runs as follows: (second compound 0.949 µM, first compound 0.00949 µM) 73.6%; (second compound 0.949 µM, first compound 0.03 µM) 68.5%; (second compound 0.949 µM, first compound 0.0949 µM) 57.9%; (second compound 0.949 µM, first compound 0.3 µM) 52.2%; (second compound 0.949 µM, first compound 0.949 µM) 43.1%; (second compound 0.949 µM, first compound 3 µM) 33.3%. Also, the viability, T/C reads like this: (second compound 3 µM, first compound 0.00949 µM) 67.2%; (second compound 3 µM, first compound 0.03 µM) 61.1%; (second compound 3 µM, first compound 0.0949 µM) 54.4%; (second compound 3 µM, first compound 0.3 µM) 42%; (second compound 3 µM, first compound 0.949 µM) 39.7%; (second compound 3 µM, first compound 3 µM) 31.4%. The viability, T/C is, setting by setting: (second compound 9.49 µM, first compound 0.00949 µM) 64%; (second compound 9.49 µM, first compound 0.03 µM) 57.1%; (second compound 9.49 µM, first compound 0.0949 µM) 45.6%; (second compound 9.49 µM, first compound 0.3 µM) 40.4%; (second compound 9.49 µM, first compound 0.949 µM) 32.7%; (second compound 9.49 µM, first compound 3 µM) 28.9%. For the same molecule, the viability, T/C is, setting by setting: (second compound 30 µM, first compound 0.00949 µM) 50.1%; (second compound 30 µM, first compound 0.03 µM) 45.2%; (second compound 30 µM, first compound 0.0949 µM) 42.5%; (second compound 30 µM, first compound 0.3 µM) 52%; (second compound 30 µM, first compound 0.949 µM) 28.9%; (second compound 30 µM, first compound 3 µM) 33.1%.
As for `Cn1cnc2c(F)c(Nc3ccc(Br)cc3Cl)c(C(=O)NOCCO)cc21`, the viability, T/C is 83.5% and 81.4% (compound 0.00949 µM); 81.7% and 79.9% (compound 0.03 µM); 62.3% and 70.2% (compound 0.0949 µM); 70.4% and 70.3% (compound 0.3 µM); 57% and 62.4% (compound 0.949 µM); 45.9% and 44.9% (compound 3 µM). Moreover, the pIC50 (curve of compound) was 5.68 and 5.66.
As to `CC(=O)Nc1cccc(-n2c(=O)n(C3CC3)c(=O)c3c(Nc4ccc(I)cc4F)n(C)c(=O)c(C)c32)c1`, the viability, T/C reads like this: (compound 94.9 pM) 92.8% and 120%; (compound 0.0003 µM) 81.6% and 81.1%; (compound 0.000949 µM) 88.4% and 73.1%; (compound 0.003 µM) 70.1% and 70%; (compound 0.00949 µM) 61.6% and 54.3%; (compound 0.03 µM) 37.1% and 44.9%. In addition, the pIC50 (curve of compound) was 7.80 and 7.53.
As for `Cc1nc(NC(=O)N2CCCC2C(N)=O)sc1-c1ccnc(C(C)(C)C(F)(F)F)c1` (configuration not stated) + CC(C)NCC(C(=O)N1CCN(c2ncnc3c2C(C)CC3O)CC1)c1ccc(Cl)cc1, the pIC50 runs as follows: under setting [1], 5.15; under setting [2], 6.01; under setting [3], 5.57; under setting [4], 5.70; under setting [5], greater than 7.50. The viability, T/C is 95.3% (second compound 0.3 µM, first compound 0.0316 µM); 77% (second compound 0.3 µM, first compound 0.1 µM); 79.2% (second compound 0.3 µM, first compound 0.316 µM); 69.4% (second compound 0.3 µM, first compound 1 µM); 60.1% (second compound 0.3 µM, first compound 3.16 µM); 44.7% (second compound 0.3 µM, first compound 10 µM). Further, the viability, T/C is 77.3% (second compound 0.949 µM, first compound 0.0316 µM); 78.8% (second compound 0.949 µM, first compound 0.1 µM); 71.9% (second compound 0.949 µM, first compound 0.316 µM); 49.4% (second compound 0.949 µM, first compound 1 µM); 50.9% (second compound 0.949 µM, first compound 3.16 µM); 40.9% (second compound 0.949 µM, first compound 10 µM). Moreover, the viability, T/C runs as follows: (second compound 3 µM, first compound 0.0316 µM) 63.7%; (second compound 3 µM, first compound 0.1 µM) 77.3%; (second compound 3 µM, first compound 0.316 µM) 67.5%; (second compound 3 µM, first compound 1 µM) 58%; (second compound 3 µM, first compound 3.16 µM) 46.3%; (second compound 3 µM, first compound 10 µM) 50.8%. Also, the viability, T/C reads like this: (second compound 9.49 µM, first compound 0.0316 µM) 54.5%; (second compound 9.49 µM, first compound 0.1 µM) 64.5%; (second compound 9.49 µM, first compound 0.316 µM) 63%; (second compound 9.49 µM, first compound 1 µM) 55.8%; (second compound 9.49 µM, first compound 3.16 µM) 46%; (second compound 9.49 µM, first compound 10 µM) 39.8%. In addition, the viability, T/C runs as follows: (second compound 30 µM, first compound 0.0316 µM) 39.1%; (second compound 30 µM, first compound 0.1 µM) 40.9%; (second compound 30 µM, first compound 0.316 µM) 34%; (second compound 30 µM, first compound 1 µM) 32.9%; (second compound 30 µM, first compound 3.16 µM) 27.4%; (second compound 30 µM, first compound 10 µM) 24.5%.
Take `CC(C)NCC(C(=O)N1CCN(c2ncnc3c2C(C)CC3O)CC1)c1ccc(Cl)cc1` (configuration not stated): the viability, T/C is 84.7% [middle of 10 runs] (compound 0.949 µM) and 82.2% [middle of 10 runs] (compound 3 µM). Also, the pIC50 (compound alone, run of 03/19/2020) is less than 4.52.
